In this experiment the target is T1, PI3Kα (p110α/p85α) (Homo sapiens, UniProt P42336).
T1 construct: purchased BPS Bioscience (San Diego, Calif.) or Millipore (Billerica, Mass.)
Briefly: HTRF assay, potency against active PI3Kα. It is filed as biochemical. Conditions: HTRF; [ATP]=50 μM, [di-C8-PIP2]=10 μM; 30 min pre-incubation; read-out: PI3Kα Inhibition. The gist of the method: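 IC50 came from a variable-slope fit of % inhibition, calculated from the HTRF emission ratio relative to wells with and without enzyme. Reactions with the active enzyme complex ran 30-60 minutes at 25 °C after ATP addition before stop and detection reagents.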
In general terms: Time-resolved FRET reads energy transfer from a long-lived donor to a nearby acceptor.

Where only a bound is given, the exact number is not on record here.

T1 sequence (P42336 whole entry): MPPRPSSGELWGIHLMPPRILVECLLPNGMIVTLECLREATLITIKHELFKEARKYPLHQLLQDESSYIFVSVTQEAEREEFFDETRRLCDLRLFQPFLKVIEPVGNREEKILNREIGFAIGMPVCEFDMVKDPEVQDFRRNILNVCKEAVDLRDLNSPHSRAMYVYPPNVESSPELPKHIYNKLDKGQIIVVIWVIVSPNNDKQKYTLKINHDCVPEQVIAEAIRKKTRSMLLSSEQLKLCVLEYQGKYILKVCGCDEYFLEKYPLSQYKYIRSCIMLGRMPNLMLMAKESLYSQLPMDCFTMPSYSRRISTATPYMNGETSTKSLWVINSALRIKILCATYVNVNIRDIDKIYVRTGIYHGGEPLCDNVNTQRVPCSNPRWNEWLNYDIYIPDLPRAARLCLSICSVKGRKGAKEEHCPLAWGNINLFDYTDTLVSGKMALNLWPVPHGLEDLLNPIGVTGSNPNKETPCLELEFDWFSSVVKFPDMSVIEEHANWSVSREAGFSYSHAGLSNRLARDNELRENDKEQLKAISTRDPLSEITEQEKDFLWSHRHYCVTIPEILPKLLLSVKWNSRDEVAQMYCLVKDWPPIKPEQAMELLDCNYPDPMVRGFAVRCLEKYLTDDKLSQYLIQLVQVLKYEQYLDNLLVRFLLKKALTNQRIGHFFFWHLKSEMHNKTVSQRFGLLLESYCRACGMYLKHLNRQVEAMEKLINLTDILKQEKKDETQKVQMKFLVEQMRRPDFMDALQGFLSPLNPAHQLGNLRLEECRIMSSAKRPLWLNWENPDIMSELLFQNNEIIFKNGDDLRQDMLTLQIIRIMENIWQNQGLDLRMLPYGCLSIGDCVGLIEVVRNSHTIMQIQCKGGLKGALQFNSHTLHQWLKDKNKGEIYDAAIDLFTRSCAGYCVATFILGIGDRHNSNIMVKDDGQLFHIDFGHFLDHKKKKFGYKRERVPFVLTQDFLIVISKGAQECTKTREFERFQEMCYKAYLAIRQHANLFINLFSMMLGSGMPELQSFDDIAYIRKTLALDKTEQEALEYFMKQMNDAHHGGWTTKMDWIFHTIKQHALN
T1 sequence (P27986 whole entry partner): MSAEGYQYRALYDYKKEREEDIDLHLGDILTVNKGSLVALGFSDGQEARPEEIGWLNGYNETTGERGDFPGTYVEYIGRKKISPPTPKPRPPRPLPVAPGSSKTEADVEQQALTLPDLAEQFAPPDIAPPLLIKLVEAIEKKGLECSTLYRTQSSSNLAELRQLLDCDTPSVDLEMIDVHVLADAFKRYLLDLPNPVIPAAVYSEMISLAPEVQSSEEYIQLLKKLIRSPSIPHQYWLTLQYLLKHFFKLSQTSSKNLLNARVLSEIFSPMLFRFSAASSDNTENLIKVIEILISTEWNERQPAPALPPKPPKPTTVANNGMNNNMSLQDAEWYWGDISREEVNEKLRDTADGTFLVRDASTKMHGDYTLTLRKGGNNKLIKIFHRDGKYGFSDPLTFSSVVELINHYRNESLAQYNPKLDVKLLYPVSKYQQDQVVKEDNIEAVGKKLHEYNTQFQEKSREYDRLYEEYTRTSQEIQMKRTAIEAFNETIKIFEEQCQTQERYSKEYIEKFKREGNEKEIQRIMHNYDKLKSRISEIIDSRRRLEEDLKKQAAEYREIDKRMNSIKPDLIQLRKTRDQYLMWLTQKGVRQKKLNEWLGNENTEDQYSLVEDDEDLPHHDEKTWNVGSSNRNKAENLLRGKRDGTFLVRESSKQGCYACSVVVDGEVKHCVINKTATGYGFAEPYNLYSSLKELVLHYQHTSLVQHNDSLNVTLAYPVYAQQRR

Regarding `CCC(=O)NCc1cccc(-c2cc3nc(-c4cccc(O)c4)nc(N4CCOCC4)c3s2)c1` [II^R-a-64, N-(3-(2-(3-hydroxyphenyl)-4-morpholinothieno[3,2-d]pyrimidin-6-yl)benzyl)propionamide], the IC50 fell in the range of 0.1 to 1 µM.

Regarding `C=CC(=O)Nc1ccc(CNC(=O)c2cc(-c3cnc(N)nc3C)nc(N3CCOCC3)c2)cc1` [XII-17, N-(4-acrylamidobenzyl)-2-(2-amino-4-methylpyrimidin-5-yl)-6-morpholinoisonicotinamide], the IC50 was more than 1 µM.

Regarding `C=CC(=O)N1CCC(O)(CCc2cc3nc(-c4cccc(O)c4)nc(N4CCOCC4)c3s2)CC1` [II-a-111, 1-(4-hydroxy-4-(2-(2-(3-hydroxyphenyl)-4-morpholinothieno[3,2-d]pyrimidin-6-yl)ethyl)piperidin-1-yl)prop-2-en-1-one], the IC50 lay within 0.01 to 0.1 µM.

`C=CC(=O)N(C)CC(=O)N1CCC(n2nc(-c3cc4cc(O)ccc4[nH]3)c3c(N)ncnc32)CC1` [XI-8, N-(2-(4-(4-amino-3-(5-hydroxy-1H-indol-2-yl)-1H-pyrazolo[3,4-d]pyrimidin-1-yl)piperidin-1-yl)-2-oxoethyl)-N-methylacrylamide]: the IC50 is more than 1 µM.

With `CC(C)=CC(=O)C1(C(=O)N2CCC(C#Cc3cc(-c4cnc(N)nc4)nc(N4CCOCC4)c3)CC2)CC1` [XII-33, 1-(1-(4-((2-(2-aminopyrimidin-5-yl)-6-morpholinopyridin-4-yl)ethynyl)piperidine-1-carbonyl)cyclopropyl)-3-methylbut-2-en-1-one], the IC50 was 0.1 to 1 µM.

Turning to `CC(C)=CC(=O)CCCC(=O)NCC#Cc1cc(-c2cnc(N)nc2)nc(N2CCOCC2)c1` [XII-20, N-(3-(2-(2-aminopyrimidin-5-yl)-6-morpholinopyridin-4-yl)prop-2-ynyl)-7-methyl-5-oxooct-6-enamide], the IC50 was 0.1 to 1 µM.

As for `O=C(C=C1COC1)CCC(=O)N1CCN(Cc2cc3nc(-c4cccc5[nH]ncc45)nc(N4CCOCC4)c3s2)CC1` [II-a-113, 1-(4-((2-(1H-indazol-4-yl)-4-morpholinothieno[3,2-d]pyrimidin-6-yl)methyl)piperazin-1-yl)-5-(oxetan-3-ylidene)pentane-1,4-dione], the IC50 was more than 1 µM.

For the molecule `C=CC(=O)NCC(=O)N1CCc2cc(-c3cc4nc(-c5cccc(O)c5)nc(N5CCOCC5)c4s3)ccc2C1` [II-a-121, N-(2-(6-(2-(3-hydroxyphenyl)-4-morpholinothieno[3,2-d]pyrimidin-6-yl)-3,4-dihydroisoquinolin-2(1H)-yl)-2-oxoethyl)acrylamide], the IC50 fell in the range of 0.1 to 1 µM.

Regarding `C=CC(=O)NC1CCN(c2ccc(-c3cc4nc(-c5cccc6[nH]ncc56)nc(N5CCOCC5)c4s3)cc2)CC1` [II-a-110, N-(1-(4-(2-(1H-indazol-4-yl)-4-morpholinothieno[3,2-d]pyrimidin-6-yl)phenyl)piperidin-4-yl)acrylamide], the IC50 lay within 0.1 to 1 µM.

`CCC/C=C/C(=O)CCC(=O)N1CCN(Cc2cc3nc(-c4cccc5[nH]ncc45)nc(N4CCOCC4)c3s2)CC1` [II-a-63, (E)-1-(4-((2-(1H-indazol-4-yl)-4-morpholinothieno[3,2-d]pyrimidin-6-yl)methyl)piperazin-1-yl)non-5-ene-1,4-dione]: the IC50 is less than 0.01 µM.

For `CC(C)=CC(=O)CCC(=O)N1CCN(c2ccc(-c3ccnc4ccc(/C=C5\SC(=O)NC5=O)cc34)cn2)CC1` [V-18, (Z)-5-((4-(6-(4-(6-methyl-4-oxohept-5-enoyl)piperazin-1-yl)pyridin-3-yl)quinolin-6-yl)methylene)thiazolidine-2,4-dione], the IC50 was less than 0.01 µM.

Regarding `C=CC(=O)NOCC(=O)N1CCN(Cc2cc3nc(-c4cccc5[nH]ncc45)nc(N4CCOCC4)c3s2)CC1` [II-a-147, N-(2-(4-((2-(1H-indazol-4-yl)-4-morpholinothieno[3,2-d]pyrimidin-6-yl)methyl)piperazin-1-yl)-2-oxoethoxy)acrylamide], the IC50 was in the range of 0.1 to 1 µM.

Regarding `C=CC(=O)NCCC(=O)N1CCC[C@@H](n2nc(-c3cc4cc(O)ccc4[nH]3)c3c(N)ncnc32)C1` [XI-4, (R)—N-(3-(3-(4-amino-3-(5-hydroxy-1H-indol-2-yl)-1H-pyrazolo[3,4-d]pyrimidin-1-yl)piperidin-1-yl)-3-oxopropyl)acrylamide], the IC50 is more than 1 µM.

As to `C/C=C/C(=O)CCC(=O)NCc1ccc(-c2cc3nc(-c4cccc(O)c4)nc(N4CCOCC4)c3s2)cc1` [II-a-80, (E)-N-(4-(2-(3-hydroxyphenyl)-4-morpholinothieno[3,2-d]pyrimidin-6-yl)benzyl)-4-oxohept-5-enamide], the IC50 is less than 0.01 µM.

Consider `CC(C)=CC(=O)CCCCC#Cc1cc(-c2cccc3[nH]ncc23)nc(N2CCOCC2)c1` [XII-7, 10-(2-(1H-indazol-4-yl)-6-morpholinopyridin-4-yl)-2-methyldec-2-en-9-yn-4-one], for which the IC50 is more than 1 µM.

Consider `O=C(/C=C/c1ncc[nH]1)CCC(=O)N1CCN(Cc2cc3nc(-c4cccc5[nH]ncc45)nc(N4CCOCC4)c3s2)CC1` [II-a-125, (E)-1-(4-((2-(1H-indazol-4-yl)-4-morpholinothieno[3,2-d]pyrimidin-6-yl)methyl)piperazin-1-yl)-6-(1H-imidazol-2-yl)hex-5-ene-1,4-dione], for which the IC50 lay in the range of 0.1 to 1 µM.

Take `CC(C)=CC(=O)c1ccc(CCNC(=O)c2cc(-c3cccc4[nH]ncc34)nc(N3CCOCC3)c2)cc1` [XII-12]: the IC50 is more than 1 µM.

For the molecule `C=CC(=O)N[C@H]1CCC[C@@H](C(=O)N2CCN(Cc3cc4nc(-c5cccc6[nH]ncc56)nc(N5CCOCC5)c4s3)CC2)C1` [II-a-98], the IC50 is 0.1 to 1 µM.

Turning to `C=CC(=O)N1CCN(c2ccc(-c3ccnc4ccc(/C=C5\SC(=O)NC5=O)cc34)cn2)CC1` [V-4, (Z)-5-((4-(6-(4-acryloylpiperazin-1-yl)pyridin-3-yl)quinolin-6-yl)methylene)thiazolidine-2,4-dione], the IC50 was in the range of 0.01 to 0.1 µM.

Regarding `C/C(=C\c1ncc[nH]1)C(=O)CCC(=O)N1CCN(Cc2cc3nc(-c4cccc5[nH]ncc45)nc(N4CCOCC4)c3s2)CC1` [II-a-170, (E)-1-(4-((2-(1H-indazol-4-yl)-4-morpholinothieno[3,2-d]pyrimidin-6-yl)methyl)piperazin-1-yl)-6-(1H-imidazol-2-yl)-5-methylhex-5-ene-1,4-dione], the IC50 lay in the range of 0.1 to 1 µM.

Regarding `CC(C)=CC(=O)CCC(=O)N1CCC(C#Cc2cc(-c3cnc(N)nc3)nc(N3CCOCC3)c2)CC1` [XII-31, 1-(4-((2-(2-aminopyrimidin-5-yl)-6-morpholinopyridin-4-yl)ethynyl)piperidin-1-yl)-6-methylhept-5-ene-1,4-dione], the IC50 fell in the range of 0.1 to 1 µM.

With `CC(C)=CC(=O)CCc1ccc(C#Cc2cc(-c3cccc4[nH]ncc34)nc(N3CCOCC3)c2)cc1` [XII-19, 1-(4-((2-(1H-indazol-4-yl)-6-morpholinopyridin-4-yl)ethynyl)phenyl)-5-methylhex-4-en-3-one], the IC50 was more than 1 µM.

As for `CC(C)=CC(=O)CCCC(=O)N1CC=C(c2cc(-c3cnc(N)nc3)nc(N3CCOCC3)c2)CC1` [XII-3, 1-(4-(2-(2-aminopyrimidin-5-yl)-6-morpholinopyridin-4-yl)-5,6-dihydropyridin-1(2H)-yl)-7-methyloct-6-ene-1,5-dione], the IC50 lay within 0.01 to 0.1 µM.

On to `C=CC(=O)Nc1ccc(CCNC(=O)c2cc(-c3cccc4[nH]ncc34)nc(N3CCOCC3)c2)cc1` [XII-13, N-(4-acrylamidophenethyl)-2-(1H-indazol-4-yl)-6-morpholinoisonicotinamide], for which the IC50 was more than 1 µM.

For `CC(C)=CC(=O)C(=O)N1CCN(c2ccc(-c3cc(-c4cnc(N)nc4)nc(N4CCOCC4)c3)cc2)CC1` [XII-24, 1-(4-(4-(2-(2-aminopyrimidin-5-yl)-6-morpholinopyridin-4-yl)phenyl)piperazin-1-yl)-4-methylpent-3-ene-1,2-dione], the IC50 lay within 0.01 to 0.1 µM.

For `C/C=C/C(=O)CCCC(=O)N1CCc2ccc(-c3ccnc4ccc(/C=C5\SC(=O)NC5=O)cc34)cc2C1` [V-17, (Z)-5-((4-(2-((E)-5-oxooct-6-enoyl)-1,2,3,4-tetrahydroisoquinolin-7-yl)quinolin-6-yl)methylene)thiazolidine-2,4-dione], the IC50 is 0.01 to 0.1 µM.

With `C=CC(=O)Nc1ccc(CCNC(=O)c2cc(-c3cnc(N)cc3C(F)(F)F)nc(N3CCOCC3)c2)cc1` [XII-11, N-(4-acrylamidophenethyl)-6′-amino-6-morpholino-4′-(trifluoromethyl)-2,3′-bipyridine-4-carboxamide], the IC50 was more than 1 µM.

On to `C=CC(=O)N[C@H]1CCCC[C@H]1C(=O)N1CCN(Cc2cc3nc(-c4cccc5[nH]ncc45)nc(N4CCOCC4)c3s2)CC1` [II-a-96], for which the IC50 lay within 0.1 to 1 µM.

Turning to `C=CC(=O)N1CCC(O)(C#Cc2cc3nc(-c4cccc(O)c4)nc(N4CCOCC4)c3s2)CC1` [II-a-69, 1-(4-hydroxy-4-((2-(3-hydroxyphenyl)-4-morpholinothieno[3,2-d]pyrimidin-6-yl)ethynyl)piperidin-1-yl)prop-2-en-1-one], the IC50 lay within 0.01 to 0.1 µM.

In the case of `C=CC(=O)N[C@H]1CC[C@H](C(=O)N2CCN(Cc3cc4nc(-c5cccc6[nH]ncc56)nc(N5CCOCC5)c4s3)CC2)CC1` [II-a-100], the IC50 was in the range of 0.1 to 1 µM.

Consider `COc1c(OCCNC(=O)CCCC(=O)/C=C/c2ccccc2)ccc2c1N=C(NC(=O)c1cccnc1)N1CCN=C21` [IX-4, (E)-N-(7-methoxy-8-(2-(5-oxo-7-phenylhept-6-enamido)ethoxy)-2,3-dihydroimidazo[1,2-c]quinazolin-5-yl)nicotinamide], for which the IC50 lay within 0.1 to 1 µM.

With `CC(C)=CC(=O)CCCC(=O)N1CC=C(c2cc3nc(-c4cnc(N)nc4)nc(N4CCOCC4)c3s2)CC1` [II-a-166, 1-(4-(2-(2-aminopyrimidin-5-yl)-4-morpholinothieno[3,2-d]pyrimidin-6-yl)-5,6-dihydropyridin-1(2H)-yl)-7-methyloct-6-ene-1,5-dione], the IC50 is less than 0.01 µM.
